Test results: the supplement of paper PMC10627819

What was measured:
S. aureus Newman [1] = assay: fitness (endpoint OD595 vs no drug) (fraction); higher = more growth
Method in brief: (§1)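 In 384-well plates at 37 °C, cultures began at OD595 0.01 in 30 µl, with 55 µl used for S. pneumoniae. OD595 readings every 30 min for 14 h were corrected by the first reading. Fitness divides the stationary-phase transition optical density by the robust mean of no-drug control wells. The result is capped at 1.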

B. subtilis 168 [2] = assay: as above
Method in brief: as §1

S. pneumoniae D39V [3] = assay: as above; conditions: one replicate
Method in brief: as §1

S. aureus Newman [4] = assay: Bliss interaction score (quartile over a dose matrix) (fitness difference); higher = more antagonism (negative = synergy)
Method in brief: (§2)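 The Bliss score is observed fitness minus expected fitness, where the expected value is the product of single-drug fitness values inferred from combination data. Fitness is OD595 at entry into stationary phase normalised to the plate's robust no-drug mean and capped at 1. Scores are reported as quartiles spanning technical, biological and donor/recipient replicates.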

S. aureus DSM 20231 = assay: as above
Method in brief: as §2

B. subtilis 168 [5] = assay: as above
Method in brief: as §2

S. pneumoniae D39V [6] = assay: as above
Method in brief: as §2
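For Bliss interaction score (quartile over a dose matrix) in this document: first quartile when negative (synergy) and third quartile when positive (antagonism).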
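For fitness (endpoint OD595 vs no drug) in this document: OD595 on entry to stationary phase over no-drug wells; at most 1.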

CC1=C(C(=O)O)N2C(=O)[C@@H](NC(=O)[C@H](N)c3ccccc3)[C@H]2SC1 [Cephalexin] + CN(N=O)C(=O)N[C@@H](C=O)[C@@H](O)[C@H](O)[C@H](O)CO [Streptozotocin]
fitness
Conditions | first compound 0.125 µg/mL | first compound 0.25 µg/mL | first compound 0.5 µg/mL | first compound 1 µg/mL | first compound 2 µg/mL | first compound 4 µg/mL
S. aureus Newman [1], partner 0.15 µg/mL | – | 0.874 | 0.863 | 0.876 | – | –
S. aureus Newman [1], partner 0.3 µg/mL | – | 0.728 | 0.735 | 0.786 | – | –
S. aureus Newman [1], partner 0.6 µg/mL | – | 0.6 | 0.591 | 0.696 | – | –
S. pneumoniae D39V [3], partner 1.2 µg/mL | 0.878 | 0.928 | 0.953 | 0.218 | 0.0084 | 0.0421
S. pneumoniae D39V [3], partner 2.4 µg/mL | 0.922 | 0.965 | 0.968 | 0.313 | 0.0518 | 0.0145
S. pneumoniae D39V [3], partner 4.8 µg/mL | 0.909 | 0.901 | 0.922 | 0.0033 | 0 | 0

fitness, B. subtilis 168 [2], one replicate
Conditions | first compound 0.125 µg/mL | first compound 0.25 µg/mL | first compound 0.5 µg/mL
partner 0.15 µg/mL | 0.918 | 0.932 | ≥ 1
partner 0.3 µg/mL | ≥ 1 | ≥ 1 | ≥ 1
partner 0.6 µg/mL | 0.952 | 0.956 | 0.967

Conditions | Bliss interaction score
B. subtilis 168 [5] | 0.094
S. aureus DSM 20231 | -0.0755
S. aureus Newman [4] | 0.0503
S. pneumoniae D39V [6] | -0.0789

CC1=C(C(=O)O)N2C(=O)[C@@H](NC(=O)[C@H](N)c3ccccc3)[C@H]2SC1 [Cephalexin] + CN[C@@H]1[C@H](O)[C@H](NC)[C@H]2O[C@@]3(O)C(=O)C[C@@H](C)O[C@H]3O[C@@H]2[C@H]1O [Spectinomycin]
fitness
Conditions | first compound 0.125 µg/mL | first compound 0.25 µg/mL | first compound 0.5 µg/mL | first compound 1 µg/mL | first compound 2 µg/mL | first compound 4 µg/mL
B. subtilis 168 [2], partner 2 µg/mL | ≥ 1 | 0.933 | 0.978 | – | – | –
B. subtilis 168 [2], partner 4 µg/mL | 0.981 | 0.978 | ≥ 1 | – | – | –
B. subtilis 168 [2], partner 8 µg/mL | 0.905 | 0.928 | 0.884 | – | – | –
S. aureus Newman [1], partner 4 µg/mL | – | 0.904 | 0.951 | 0.951 | – | –
S. aureus Newman [1], partner 8 µg/mL | – | 0.982 | ≥ 1 | ≥ 1 | – | –
S. aureus Newman [1], partner 16 µg/mL | – | 0.949 | 0.957 | ≥ 1 | – | –
S. pneumoniae D39V [3], partner 4 µg/mL | 0.874 | 0.91 | 0.993 | 0.474 | 0.0025 | 0
S. pneumoniae D39V [3], partner 8 µg/mL | 0.892 | 0.884 | 0.908 | 0.587 | 0.0549 | 0.0577
S. pneumoniae D39V [3], partner 16 µg/mL | 0.875 | 0.82 | 0.859 | – | – | –

fitness, S. aureus Newman [1], one replicate
Conditions | first compound 0.5 µg/mL | first compound 1 µg/mL | first compound 2 µg/mL
partner 16 µg/mL | – | – | 0.969
partner 32 µg/mL | 0.681 | 0.713 | 0.651
partner 64 µg/mL | 0.127 | 0.071 | 0.1

Conditions | Bliss interaction score
B. subtilis 168 [5] | 0.0659
S. aureus DSM 20231 | 0.0503
S. aureus Newman [4] | 0.0839
S. pneumoniae D39V [6] | 0.0578
